Drawing on ChEMBL document CHEMBL2390902, “Discovery of 1-(1,3,5-triazin-2-yl)piperidine-4-carboxamides as inhibitors of soluble epoxide hydrolase” (Bioorg Med Chem Lett, 2013), this text covers IC50, clearance and fraction unbound for 26 molecules.

One data set concerns the target Cytochrome P450 2C9 (Homo sapiens, UniProt P11712).
The nature of data set [1]: Plasma clearance in rat at 1 mg/kg, iv. It counts as ADME, organism-based. More on the design: dose 1 mg/kg, route intravenous.
The target of data set [2] is T1, Bifunctional epoxide hydrolase 2 (Homo sapiens, UniProt P34913).
T1 sequence (P34913 whole entry): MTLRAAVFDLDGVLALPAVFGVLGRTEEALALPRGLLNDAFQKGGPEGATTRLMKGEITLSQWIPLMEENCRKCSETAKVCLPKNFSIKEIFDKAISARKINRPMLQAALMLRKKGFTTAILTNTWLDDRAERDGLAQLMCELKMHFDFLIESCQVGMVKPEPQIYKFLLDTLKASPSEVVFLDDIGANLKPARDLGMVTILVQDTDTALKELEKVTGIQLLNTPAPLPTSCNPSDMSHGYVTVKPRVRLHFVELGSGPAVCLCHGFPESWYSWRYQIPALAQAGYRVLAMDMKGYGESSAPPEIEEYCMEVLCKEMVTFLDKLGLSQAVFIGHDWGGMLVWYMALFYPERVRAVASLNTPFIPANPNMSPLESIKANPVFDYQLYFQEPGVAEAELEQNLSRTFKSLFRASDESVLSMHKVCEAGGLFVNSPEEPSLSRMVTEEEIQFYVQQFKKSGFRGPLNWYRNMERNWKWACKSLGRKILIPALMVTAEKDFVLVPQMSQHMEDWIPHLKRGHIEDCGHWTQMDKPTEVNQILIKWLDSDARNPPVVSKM
Description: Inhibition of human soluble epoxide hydrolase overexpressed in HEK293F cells using EET as substrate assessed as formation of DHET incubated for 30 mins prior to substrate addition measured after 60 mins by ELISA

Data set [3] concerns the target T1, Bifunctional epoxide hydrolase 2. This is another data set of the same source.
Description: Inhibition of human soluble epoxide hydrolase using PHOME as substrate assessed as formation of 6-methoxy-2-naphthaldehyde incubated for 10 mins prior to substrate addition measured with in 30 mins by fluorescence assay
Data set [4] in a line: Fraction unbound in rat plasma. Type of data set: ADME, cell-free.

Molecules are shown by their SMILES. pIC50: −log10 of the molar value. Some results are limits rather than exact numbers.

Sequence of Cytochrome P450 2C9 (P11712 whole entry): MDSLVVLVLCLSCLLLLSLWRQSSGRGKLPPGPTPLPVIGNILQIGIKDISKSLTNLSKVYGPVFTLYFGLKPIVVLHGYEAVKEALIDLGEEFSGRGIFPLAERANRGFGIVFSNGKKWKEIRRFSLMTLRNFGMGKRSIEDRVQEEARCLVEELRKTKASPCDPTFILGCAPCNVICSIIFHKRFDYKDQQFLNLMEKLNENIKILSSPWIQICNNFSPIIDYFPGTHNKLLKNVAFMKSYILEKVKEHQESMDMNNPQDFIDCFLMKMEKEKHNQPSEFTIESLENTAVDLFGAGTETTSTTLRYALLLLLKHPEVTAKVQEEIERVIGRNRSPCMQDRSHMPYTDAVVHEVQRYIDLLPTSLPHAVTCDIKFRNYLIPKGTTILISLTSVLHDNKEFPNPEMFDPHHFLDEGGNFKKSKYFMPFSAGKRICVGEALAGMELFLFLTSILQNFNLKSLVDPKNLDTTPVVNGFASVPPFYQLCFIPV
Description for Cytochrome P450 2C9: Inhibition of CYP2C9 (unknown origin)

For `CNc1nc(NC)nc(N2CCC(C(=O)NCc3ccccc3C(F)(F)F)CC2)n1`, the pIC50 on Cytochrome P450 2C9 is 4.60; in data set [2], 7.00; in data set [3], 7.70. The clearance in data set [1] was 79 mL/min/kg.

With `CNc1nc(C)cc(N2CCC(C(=O)NCc3ccccc3C(F)(F)F)CC2)n1`, the negative logarithm of the IC50 (pIC50) is under 4.60 at Cytochrome P450 2C9 and 7.40 in data set [3].

For the molecule `CNc1nc(C2CCCCC2)nc(N2CCC(C(=O)NCc3ccccc3C(F)(F)F)CC2)n1`, the negative logarithm of the IC50 (pIC50) is 7.20 against Cytochrome P450 2C9 and 9.00 in data set [3].

As to `Cc1nc(N2CCOCC2)nc(N2CCC(C(=O)NCc3ccccc3C(F)(F)F)CC2)n1`, the pIC50 against Cytochrome P450 2C9 was 6.40; in data set [2] it was 8.52; in data set [3], 9.00.

The molecule `CNc1nc(N2CCC(C(=O)NCc3ccccc3C(F)(F)F)CC2)nc(N2CCN(C)CC2)n1` gave a clearance in data set [1] of 46 mL/min/kg.

With `Cc1nc(NC(C)C)nc(N2CCC(C(=O)NCc3ccccc3C(F)(F)F)CC2)n1`, the pIC50 was 6.40 against Cytochrome P450 2C9, 8.00 in data set [2] and 9.00 in data set [3].

With `CNc1nc(C)nc(N2CCC(C(=O)NCc3ccc(OC(F)(F)F)cc3)CC2)n1`, the pIC50 against Cytochrome P450 2C9 was under 4.60; in data set [3], 6.40.

`CNc1nc(N(C)CCN(C)C)nc(N2CCC(C(=O)NCc3ccccc3C(F)(F)F)CC2)n1`: the negative-log IC50 (pIC50) was 4.77 against Cytochrome P450 2C9 and 7.10 in data set [3]. In data set [1], this molecule gave a clearance of 140 mL/min/kg.

Turning to `CNc1nc(C)nc(N2CCC(C(=O)NCc3ccc(F)cc3C(F)(F)F)CC2)n1`, the figures for the pIC50 (on Cytochrome P450 2C9; in data set [2]; in data set [3]) were under 4.60, 7.30 and 8.52, respectively.

Take `CNc1cc(C)nc(N2CCC(C(=O)NCc3ccccc3C(F)(F)F)CC2)c1`: the values for the pIC50 (on Cytochrome P450 2C9; in data set [3]) were under 4.60 and 5.80, respectively.

`CCc1nc(NC)nc(N2CCC(C(=O)NCc3ccccc3C(F)(F)F)CC2)n1`: the negative logarithm of the IC50 (pIC50) against Cytochrome P450 2C9 was 5.02; in data set [2] it was 7.10; in data set [3] it was 8.40.

For `CNc1nc(C)nc(N2CCC(C(=O)NCc3ccccc3C)CC2)n1`, the pIC50 against Cytochrome P450 2C9 is under 4.60; in data set [3], 6.70.

As for `CNc1nc(C)nc(N2CCC(C(=O)NCc3ccccc3)CC2)n1`, the negative logarithm of the IC50 (pIC50) is under 4.60 at Cytochrome P450 2C9 and 6.70 in data set [3].

Turning to `CNc1nc(C)nc(N2CCC(C(=O)NCc3ccccc3C(F)(F)F)CC2)n1`, the pIC50 is 4.60 against Cytochrome P450 2C9, 7.00 in data set [2] and 8.52 in data set [3]. In data set [1], this molecule registered a clearance of 51 mL/min/kg.

Consider `CNc1nc(C)nc(N2CCC(C(=O)NCc3ccccc3OC)CC2)n1`, for which the negative-log IC50 (pIC50) at Cytochrome P450 2C9 is under 4.60; in data set [3] it was 5.80.

With `CNc1cc(N2CCC(C(=O)NCc3ccccc3C(F)(F)F)CC2)cc(C)n1`, the negative logarithm of the IC50 (pIC50) at Cytochrome P450 2C9 is under 4.60; in data set [3], 6.90.

Turning to `CNc1nc(C)nc(N2CCC(C(=O)NCc3ccccc3C#N)CC2)n1`, the pIC50 at Cytochrome P450 2C9 is under 4.60; in data set [3], 7.10.

Take `CNc1cc(C)nc(N2CCC(C(=O)NCc3ccccc3C(F)(F)F)CC2)n1`: the pIC50 was under 4.60 against Cytochrome P450 2C9 and 6.80 in data set [3].

`COCCNc1nc(C)nc(N2CCC(C(=O)NCc3ccccc3C(F)(F)F)CC2)n1`: the figures for the pIC50 (against Cytochrome P450 2C9; in data set [2]; in data set [3]) were 5.74, 9.00 and 9.00, respectively. In data set [1], this molecule gave a clearance of 27 mL/min/kg.

Regarding `CNc1nc(-c2ccccc2)nc(N2CCC(C(=O)NCc3ccccc3C(F)(F)F)CC2)n1`, the negative-log IC50 (pIC50) against Cytochrome P450 2C9 is 5.74; in data set [2], 7.20; in data set [3], 9.00. This molecule also came in with a clearance in data set [1] of 3 mL/min/kg. Besides, the free fraction (fraction unbound) in data set [4] is 0.015.

Regarding `CNc1nc(C)nc(N2CCC(C(=O)NCc3cccc(OC(F)(F)F)c3)CC2)n1`, the negative-log IC50 (pIC50) is under 4.60 at Cytochrome P450 2C9 and 6.20 in data set [3].

As to `CNc1nc(C)nc(N2CCC(C(=O)NCc3ccc(OC)cc3C(F)(F)F)CC2)n1`, the pIC50 was under 4.60 against Cytochrome P450 2C9, 8.70 in data set [2] and 9.00 in data set [3]. The clearance in data set [1] was determined as 7 mL/min/kg.

Turning to `CNc1nc(C)nc(N2CCC(C(=O)NCc3ccccc3OC(F)(F)F)CC2)n1`, the values for the pIC50 (on Cytochrome P450 2C9; in data set [2]; in data set [3]) were under 4.60, 8.52 and 9.00, respectively. Also, in data set [1], the clearance amounted to 44 mL/min/kg.

For the molecule `CNc1cc(C)cc(N2CCC(C(=O)NCc3ccccc3C(F)(F)F)CC2)n1`, the pIC50 was 4.96 on Cytochrome P450 2C9, 7.00 in data set [2] and 8.00 in data set [3]. The molecule further displayed a clearance in data set [1] of 61 mL/min/kg.

With `CNc1cc(N2CCC(C(=O)NCc3ccccc3C(F)(F)F)CC2)nc(C)n1`, the pIC50 against Cytochrome P450 2C9 was 6.00; in data set [2] it was 7.10; in data set [3], 8.30. The molecule further displayed a clearance in data set [1] of 73 mL/min/kg.

For `CNc1cc(C)cc(N2CCC(C(=O)NCc3ccccc3C(F)(F)F)CC2)c1`, the negative logarithm of the IC50 (pIC50) on Cytochrome P450 2C9 was 5.70; in data set [3] it was 7.49.
